The results in this text go back to ChEMBL document CHEMBL1158176, “Flexible computational docking studies of new aminoglycosides targeting RNA 16S bacterial ribosome site” (Eur J Med Chem, 2008).

As usually defined, the pKd is −log10 of the Kd, conventionally taken in molar units. Read a low pKd as a large Kd.

pKd: −log10 of the molar value.

A short description of the assay: Binding affinity to bacterial 16S RNA ribosomal A site by surface plasmon technique. A general note: In SPR one partner is held on a chip, and binding of the other changes the refractive index at the surface.
In turn, `NC[C@H]1O[C@@H](OC[C@H]2O[C@@H](SCCCCCCSC[C@H]3O[C@@H](n4ccc(=O)[nH]c4=O)[C@H](O)[C@@H]3O)[C@H](N)[C@@H](O)[C@@H]2O)[C@H](N)[C@@H](O)[C@@H]1O` gave a pKd of 2.96.
As to `Cc1cn([C@H]2C[C@H](O)[C@@H](CSCCCCCCS[C@@H]3O[C@H](CN)[C@@H](O)[C@H](O)[C@H]3O)O2)c(=O)[nH]c1=O`, the pKd is 3.93.
The result for `NC[C@H]1O[C@@H](OC[C@H]2O[C@@H](OC[C@H]3O[C@@H](n4ccc(=O)[nH]c4=O)[C@H](O)[C@@H]3O)[C@H](N)[C@@H](O)[C@@H]2O)[C@H](N)[C@@H](O)[C@@H]1O` reads 2.70; that for `NC[C@H]1O[C@H](O[C@H]2[C@@H](NCCNC(=O)[C@H]3O[C@@H](n4cnc5c(N)ncnc54)[C@H](O)[C@@H]3O)[C@@H](O)[C@H](N)C[C@@H]2N)[C@H](N)[C@@H](O)[C@@H]1O`, 5.00.
The compound `Cc1cn([C@H]2C[C@H](O)[C@@H](CSCCO[C@@H]3O[C@H](CO[C@@H]4O[C@H](CN)[C@@H](O)[C@H](O)[C@H]4N)[C@@H](O)[C@H](O)[C@H]3N)O2)c(=O)[nH]c1=O` showed a pKd of 3.43.
`NC[C@H]1O[C@@H](OC[C@H]2O[C@@H](OCCSC[C@H]3O[C@@H](n4ccc(N)nc4=O)[C@H](O)[C@@H]3O)[C@H](N)[C@@H](O)[C@@H]2O)[C@H](N)[C@@H](O)[C@@H]1O` gave a pKd of 3.18.
As for `NC[C@H]1O[C@H](O[C@H]2[C@@H](NCCNC(=O)[C@H]3O[C@@H](n4ccc(N)nc4=O)[C@H](O)[C@@H]3O)[C@@H](O)[C@H](N)C[C@@H]2N)[C@H](N)[C@@H](O)[C@@H]1O`, the pKd is 4.10. Compared with the last compound, the pKd is 0.92 log units higher.
For `Cc1cn([C@H]2C[C@H](O)[C@@H](CO[C@@H]3O[C@H](CO[C@@H]4O[C@H](CN)[C@@H](O)[C@H](O)[C@H]4N)[C@@H](O)[C@H](O)[C@H]3N)O2)c(=O)[nH]c1=O` the value was 3.18.
The result for `NC[C@H]1O[C@@H](SCCCCCCSC[C@H]2O[C@@H](n3ccc(=O)[nH]c3=O)[C@H](O)[C@@H]2O)[C@H](N)[C@@H](O)[C@@H]1O` reads 2.90.
For `NC[C@H]1O[C@H](O[C@H]2[C@@H](NCCCCCCNC(=O)[C@H]3O[C@@H](n4cnc5c(N)ncnc54)[C@H](O)[C@@H]3O)[C@@H](O)[C@H](N)C[C@@H]2N)[C@H](N)[C@@H](O)[C@@H]1O` the value was 4.77; for `Cc1cn([C@H]2C[C@H](O)[C@@H](C(=O)NCCCCCCN[C@H]3[C@@H](O)[C@H](N)C[C@H](N)[C@H]3O[C@H]3O[C@H](CN)[C@@H](O)[C@H](O)[C@H]3N)O2)c(=O)[nH]c1=O`, 4.25.
The compound `Cc1cn([C@H]2C[C@H](O)[C@@H](C(=O)NCCN[C@H]3[C@@H](O)[C@H](N)C[C@H](N)[C@H]3O[C@H]3O[C@H](CN)[C@@H](O)[C@H](O)[C@H]3N)O2)c(=O)[nH]c1=O` gave a pKd of 5.05.
For `Cc1cn([C@@H]2O[C@H](C(=O)NCCCCCCN[C@H]3[C@@H](O)[C@H](N)C[C@H](N)[C@H]3O[C@H]3O[C@H](CN)[C@@H](O)[C@H](O)[C@H]3N)[C@@H](O)[C@H]2O)c(=O)[nH]c1=O` the value was 4.42; for `Cc1cn([C@H]2C[C@H](O)[C@@H](CSCCCCCCS[C@@H]3O[C@H](COC4O[C@H](CN)[C@@H](O)[C@H](O)[C@H]4N)[C@@H](O)[C@H](O)[C@H]3O)O2)c(=O)[nH]c1=O` (stereo partly specified), 3.40; for `NC[C@H]1O[C@H](O[C@H]2[C@@H](NCCNC(=O)[C@H]3O[C@@H](n4ccc(=O)[nH]c4=O)[C@H](O)[C@@H]3O)[C@@H](O)[C@H](N)C[C@@H]2N)[C@H](N)[C@@H](O)[C@@H]1O`, 4.89.
In turn, `NC[C@H]1O[C@H](O[C@H]2[C@@H](NCCCCCCNC(=O)[C@H]3O[C@@H](n4ccc(N)nc4=O)[C@H](O)[C@@H]3O)[C@@H](O)[C@H](N)C[C@@H]2N)[C@H](N)[C@@H](O)[C@@H]1O` had a pKd of 3.98.
